Measured values: ChEMBL document CHEMBL3774317, “Design and synthesis of novel tamoxifen analogues that avoid CYP2D6 metabolism” (Eur J Med Chem, 2016)

How the values were obtained:
Assay type in all cases: functional
[1] = Cytotoxicity against human OVCAR8 cells assessed as cell growth at 50 nM after 48 hrs by SRB assay; details: OVCAR-8, 48 h, read-out: Activity
[2] = test system: MDA-MB-435; assay: Cytotoxicity against human MDA-MB-435 cells assessed as cell growth at 0.5 uM after 48 hrs by SRB assay; details: MDA-MB-435, 48 h, read-out: Activity
[3] = Cytotoxicity against human LOXIMVI cells assessed as cell growth at 5 uM after 48 hrs by SRB assay; details: LOX IMVI, read-out: Activity
[4] = Cytotoxicity against human UACC62 cells assessed as cell growth at 5 uM after 48 hrs by SRB assay; details: UACC-62, 48 h, read-out: Activity
[5] = Cytotoxicity against human HCC2998 cells assessed as cell growth at 0.5 uM after 48 hrs by SRB assay; details: HCC 2998, 48 h, read-out: Activity
[6] = test system: MDA-MB-468; assay: Cytotoxicity against human MDA-MB-468 cells assessed as cell growth at 50 uM after 48 hrs by SRB assay; details: MDA-MB-468, 48 h, read-out: Activity
[7] = Cytotoxicity against human OVCAR4 cells assessed as cell growth at 50 nM after 48 hrs by SRB assay; details: OVCAR-4, 48 h, read-out: Activity
[8] = Cytotoxicity against human MOLT4 cells assessed as cell growth at 0.5 uM after 48 hrs by SRB assay; details: MOLT-4, 48 h, read-out: Activity
[9] = test system: SR; assay: Cytotoxicity against human SR cells assessed as cell growth at 5 uM after 48 hrs by SRB assay; details: read-out: Activity
[10] = Cytotoxicity against human TK10 cells assessed as cell growth at 5 nM after 48 hrs by SRB assay; details: TK-10, 48 h, read-out: Activity
[11] = test system: K562; assay: Cytotoxicity against human K562 cells assessed as cell growth at 50 uM after 48 hrs by SRB assay; details: K562, 48 h, read-out: Activity
[12] = test system: MDA-MB-435; assay: Cytotoxicity against human MDA-MB-435 cells assessed as cell growth at 5 nM after 48 hrs by SRB assay; details: MDA-MB-435, 48 h, read-out: Activity
[13] = test system: NCI-H522; assay: Cytotoxicity against human NCI-H522 cells assessed as cell growth at 50 uM after 48 hrs by SRB assay; details: NCI-H522, 48 h, read-out: Activity
[14] = Cytotoxicity against human PC3 cells assessed as cell growth at 50 uM after 48 hrs by SRB assay; details: PC-3, 48 h, read-out: Activity
[15] = Cytotoxicity against human SKOV3 cells assessed as cell growth at 50 nM after 48 hrs by SRB assay; details: SK-OV-3, 48 h, read-out: Activity
[16] = Cytotoxicity against human HOP62 cells assessed as cell growth at 5 uM after 48 hrs by SRB assay; details: HOP-62, 48 h, read-out: Activity
[17] = test system: CCRF-CEM; assay: Cytotoxicity against human CCRF-CEM cells assessed as cell growth at 5 nM after 48 hrs by SRB assay; details: read-out: Activity
[18] = test system: SR; assay: Cytotoxicity against human SR cells assessed as cell growth at 50 nM after 48 hrs by SRB assay; details: read-out: Activity
[19] = test system: SK-MEL-2; assay: Cytotoxicity against human SK-MEL-2 cells assessed as cell growth at 5 uM after 48 hrs by SRB assay; details: SK-MEL-2, 48 h, read-out: Activity
[20] = test system: SN12C; assay: Cytotoxicity against human SN12C cells assessed as cell growth at 50 uM after 48 hrs by SRB assay; details: read-out: Activity
[21] = Cytotoxicity against human NCI-ADR-RES cells assessed as cell growth at 50 uM after 48 hrs by SRB assay; details: read-out: Activity
[22] = Cytotoxicity against human LOXIMVI cells assessed as cell growth at 10^-8 M after 48 hrs by SRB assay; details: LOX IMVI, read-out: Activity
[23] = test system: A498; assay: Cytotoxicity against human A498 cells assessed as cell growth at 10^-5 M after 48 hrs by SRB assay; details: A498, 48 h, read-out: Activity
[24] = Cytotoxicity against human UO31 cells assessed as cell growth at 10^-7 M after 48 hrs by SRB assay; details: UO-31, 48 h, read-out: Activity
[25] = test system: NCI-H322M; assay: Cytotoxicity against human NCI-H322M cells assessed as cell growth at 10^-5 M after 48 hrs by SRB assay; details: read-out: Activity
[26] = Cytotoxicity against human OVCAR4 cells assessed as cell growth at 10^-6 M after 48 hrs by SRB assay; details: OVCAR-4, 48 h, read-out: Activity
[27] = test system: HT-29; assay: Cytotoxicity against human HT-29 cells assessed as cell growth at 10^-6 M after 48 hrs by SRB assay; details: HT-29, 48 h, read-out: Activity
[28] = test system: EKVX; assay: Cytotoxicity against human EKVX cells assessed as cell growth at 10^-6 M after 48 hrs by SRB assay; details: read-out: Activity
[29] = Cytotoxicity against human HCC2998 cells assessed as cell growth at 10^-8 M after 48 hrs by SRB assay; details: HCC 2998, 48 h, read-out: Activity
[30] = Cytotoxicity against human HCT15 cells assessed as cell growth at 10^-7 M after 48 hrs by SRB assay; details: HCT-15, 48 h, read-out: Activity
[31] = test system: MDA-MB-468; assay: Cytotoxicity against human MDA-MB-468 cells assessed as cell growth at 10^-5 M after 48 hrs by SRB assay; details: MDA-MB-468, 48 h, read-out: Activity
[32] = test system: M14; assay: Cytotoxicity against human M14 cells assessed as cell growth at 10^-7 M after 48 hrs by SRB assay; details: M14, 48 h, read-out: Activity
[33] = Cytotoxicity against human UACC62 cells assessed as cell growth at 10^-7 M after 48 hrs by SRB assay; details: UACC-62, 48 h, read-out: Activity
[34] = Cytotoxicity against human SW620 cells assessed as cell growth at 10^-5 M after 48 hrs by SRB assay; details: SW-620, 48 h, read-out: Activity
[35] = test system: NCI-H460; assay: Cytotoxicity against human NCI-H460 cells assessed as cell growth at 10^-4 M after 48 hrs by SRB assay; details: NCI-H460, 48 h, read-out: Activity
[36] = Cytotoxicity against human UACC62 cells assessed as cell growth at 10^-4 M after 48 hrs by SRB assay; details: UACC-62, 48 h, read-out: Activity
[37] = Cytotoxicity against human UO31 cells assessed as cell growth at 10^-6 M after 48 hrs by SRB assay; details: UO-31, 48 h, read-out: Activity
[38] = test system: U-251; assay: Cytotoxicity against human U251 cells assessed as cell growth at 10^-6 M after 48 hrs by SRB assay; details: U-251, 48 h, read-out: Activity
[39] = Cytotoxicity against human DU145 cells assessed as cell growth at 10^-6 M after 48 hrs by SRB assay; details: DU-145, 48 h, read-out: Activity
[40] = Cytotoxicity against human HOP62 cells assessed as cell growth at 10^-6 M after 48 hrs by SRB assay; details: HOP-62, 48 h, read-out: Activity
[41] = test system: M14; assay: Cytotoxicity against human M14 cells assessed as cell growth at 10^-6 M after 48 hrs by SRB assay; details: M14, 48 h, read-out: Activity
[42] = test system: SK-MEL-2; assay: Cytotoxicity against human SK-MEL-2 cells assessed as cell growth at 10^-6 M after 48 hrs by SRB assay; details: SK-MEL-2, 48 h, read-out: Activity

Work on `CCCCCCCCCC(=O)Oc1ccc(/C(=C(/C)c2ccccc2)c2ccc(OCCN3CCCC3)cc2)cc1` yielded a growth at 0.05 µM [1] of 101%, a growth at 0.5 µM [2] of 67% and a growth at 5 µM [3] of 89%. For the same compound, the growth at 5 µM [4] was 100%, the growth at 0.5 µM [5] was 88% and the growth at 50 µM [6] was -87%. For the same compound, the growth at 0.05 µM [7] was 92%, the growth at 0.5 µM [8] was 63% and the growth at 5 µM [9] was 90%. It also gave a growth at 0.005 µM [10] of 96%, a growth at 50 µM [11] of -70% and a growth at 0.005 µM [12] of 99%. It also gave a growth at 50 µM [13] of -74%, a growth at 50 µM [14] of -90% and a growth at 0.05 µM [15] of 90%. For the same compound, the growth at 5 µM [16] was 91%, the growth at 0.005 µM [17] was 95% and the growth at 0.05 µM [18] was 87%. It also gave a growth at 5 µM [19] of 100%, a growth at 50 µM [20] of -76% and a growth at 50 µM [21] of -73%.

Compound `C/C(=C(/c1ccc(O)cc1)c1ccc(OCCN2CCCC2)cc1)c1ccccc1` has a growth at 0.01 µM [22] of 98%, a growth at 10 µM [23] of -5% and a growth at 0.1 µM [24] of 90%. The growth at 10 µM [25] was 34%, the growth at 1 µM [26] was 89% and the growth at 1 µM [27] was 67%. The growth at 1 µM [28] was 78%, the growth at 0.01 µM [29] was 100% and the growth at 0.1 µM [30] was 91%. The growth at 10 µM [31] was -45%, the growth at 0.1 µM [32] was 93% and the growth at 0.1 µM [33] was 101%. For the same compound, the growth at 10 µM [34] was -40%, the growth at 100 µM [35] was -92% and the growth at 100 µM [36] was -79%. For the same compound, the growth at 1 µM [37] was 78%, the growth at 1 µM [38] was 95% and the growth at 1 µM [39] was 94%. It also gave a growth at 1 µM [40] of 98%, a growth at 1 µM [41] of 91% and a growth at 1 µM [42] of 99%.
